Test results from patent US7407772B2, “Screening and selection methods for statin drug combinations” (Merck & Co., Inc., priority 2001, dated 2008).
“Also recorded” adds a separate entry of the source. Like-named read-outs stand apart in the source and are kept apart here. Each block holds one molecule with its values, some of them ahead of it.

How the values were obtained:
[1] = test system: oxidative metabolism of SVA (NADPH-dependent); experiment: in vitro; details: human, pH 7.4
Protocol: (§1) The term “oxidation inhibition assay” as used herein refers to the following assay when performed with human liver microsomal protein.
(§2) Incubations were performed in triplicate for each concentration of inhibitors, and involved co-incubation of GFZ or ketoconazole (1 μM) with statins (10-20 μM) in the presence of NADPH (oxidation) or UDPGA (glucuronidation).

[2] = test system: oxidative metabolism of AVA (NADPH-dependent); experiment: in vitro; details: human, pH 7.4
Protocol: as §1, §2

[3] = test system: oxidation of CVA (both oxidative metabolites); experiment: in vitro; details: human, pH 7.4
Protocol: as §1, §2

[4] = test system: oxidation of CVA to metabolite M1; experiment: in vitro; details: human, pH 7.4
Protocol: as §1, §2

[5] = test system: oxidation of CVA to metabolite M2; experiment: in vitro; details: human, pH 7.4
Protocol: as §1, §2

[6] = cited from earlier work; for increase of plasma AUC by gemfibrozil: humans, multiple oral doses of gemfibrozil, single oral dose of simvastatin or lovastatin; for Cmax: reported values following 600 mg bid gemfibrozil or 200 mg qd fenofibrate in humans
[7] = Ex vivo simvastatin hydrolysis in dog plasma; assay type: in vitro ADME
[8] = dog, in vivo, po
[9] = Clinical pharmacokinetics in humans (literature); assay type: in vivo; details: at their respective therapeutic doses
[10] = test system: human recombinant UGT isoforms; experiment: UGT-specific glucuronidation assay, identification of responsible isoforms; assay type: in vitro ADME
Protocol: To examine UGT isoforms responsible for the glucuronidation of statins, incubations with various human recombinant UGT isoforms were performed using the same conditions as described herein for human liver microsomes in Example 1, except that the mixture contained 0.3 mg UGTs and was incubated for up to 60 min.

[11] = test system: glucuronidation of simvastatin acid (UDPGA-dependent); experiment: Inhibition of simvastatin acid glucuronidation in dog liver microsomes; assay type: in vitro ADME; details: pH 7, probe simvastatin acid (10-20 μM)
Protocol: A typical incubation mixture, in a final volume of 0.3 ml, contained 0.45 mg human or animal liver microsomes, preincubated with 0.045 mg Brij 58 (or 0.0225 mg alamethicin) for 15 min, 20 mM MgCl2, 5 mM UDPGA, and 0.05 M Tris buffer, pH 7.0.

[12] = test system: oxidative metabolism of simvastatin acid (NADPH-dependent); experiment: Inhibition of simvastatin acid oxidation in dog liver microsomes; assay type: in vitro ADME; details: pH 7.4, probe simvastatin acid (10-20 μM)
[13] = Pharmacokinetics after oral simvastatin in dogs pretreated with vehicle, gemfibrozil or fenofibrate; details: dog, in vivo
[14] = test system: glucuronidation of SVA (UDPGA-dependent); experiment: in vitro; details: human, liver microsomes, pH 7, probe SVA (10-20 μM), IC50, SVA Glucuronidation, statin 10-20 μM, UDPGA
Protocol: (§3) The term “glucuronidation inhibition assay” as used herein refers to the following assay when performed with human liver microsomes.
(§4) The effects of inhibitors on metabolism of the statins were expressed as percentages of metabolites (statin glucuronides and lactones) formed in the presence of inhibitors relative to the corresponding values obtained in the absence of inhibitors (control) on the same day.
as §2

[15] = test system: glucuronidation of AVA (UDPGA-dependent); experiment: in vitro; details: human, liver microsomes, pH 7, probe AVA (10-20 μM), IC50, AVA Glucuronidation, statin 10-20 μM, UDPGA
Protocol: as §3, §4, §2

human liver microsomes [16] = experiment: in vitro
Protocol: as §3, §4, §2

[17] = test system: glucuronidation of RVA (UDPGA-dependent); experiment: in vitro; details: human, liver microsomes, pH 7, probe RVA (10-20 μM), IC50, RVA Glucuronidation, statin 10-20 μM, UDPGA
Protocol: as §3, §4, §2

[18] = test system: glucuronidation of CVA (UDPGA-dependent); experiment: in vitro; details: human, liver microsomes, pH 7, probe CVA (10-20 μM), IC50, CVA Glucuronidation, statin 10-20 μM, UDPGA
Protocol: as §3, §4, §2

[19] = dog, in vivo
CYP3A4 = target: T1, CYP3A4 (Homo sapiens, UniProt P08684); details: human liver microsomes; cited from earlier work
T1 construct: in human liver microsomes, an in vitro assay for determining hepatic CYP3A4 activity; host or cells: human liver microsomes

[20] = test system: CYP3A-mediated oxidation of SVA; experiment: in vitro; details: human, pH 7.4
Protocol: as §1, §2

[21] = test system: oxidation of CVA to hydroxylated metabolite M1; experiment: in vitro; details: human, pH 7.4
Protocol: as §1, §2

[22] = test system: oxidation of CVA to O-demethylated metabolite M2; experiment: in vitro; details: human, pH 7.4
Protocol: as §1, §2

[23] = test system: CYP3A (SVA, AVA); CYP3A and CYP2C8 (CVA); experiment: in vitro; details: human, human liver microsomes, pH 7.4
Protocol: For oxidative metabolism studies, a typical incubation mixture, in a final volume of 0.5 mL, contained 0.1-0.25 mg liver microsomal protein, 0.1M sodium phosphate buffer (pH 7.4), 10 mM MgCl2, and 1 mM NADPH. […] Incubations were conducted at 37° C. and were terminated after 10-20 min (with NADPH) by the addition of ACN (acetonitrile). The ACN extracts were evaporated to dryness and reconstituted for analysis by HPLC with UV detection.
In brief, samples, held in an autosampler set at 5° C., were chromatographed on either a Betasil C18 (250×4.6 mm, 5 μm) or a Zorbax C18 (Waters, 150×4.6 mm, 5 μm) column, preceded by a C18 guard column, with a linear gradient of acetonitrile in 10 or 25 mM ammonium acetate, pH 4.5. […] Due to unavailability of authentic standards for oxidative metabolites of statins, quantitation of these metabolites in the in vitro incubation mixtures was accomplished using standard curves for their respective statins, assuming identical extraction recoveries and extinction coefficients between the parent drug and its corresponding metabolites.

human liver microsomes [24] = experiment: Glucuronidation assay: statin glucuronidation in human liver microsomes; assay type: in vitro ADME; details: preliminary data
Protocol: (§5) The term “glucuronidation assay” as used herein refers to the following assay when performed with human liver microsomes. […] Unless otherwise specified, the reaction was started by the addition of statins following a 3-min pre-incubation at 37° C., and the reaction was incubated for 45-60 min. Control experiments included incubation mixtures with either microsomes or UDPGA missing. The reaction was terminated, at appropriate time intervals, by the addition of 0.8 ml acetonitrile (ACN). […] The ability of statins to undergo glucuronidation was measured by formation of statin glucuronide and statin lactones, and expressed in term of intrinsic clearance (Clint). The CLint was estimated by dividing Vmax by apparent Km. The Km and Vmax values were estimated using a nonlinear regression program, based on a Michealis-Menten equation as follow: V=Vmax×C/(Km+C); V=formation rate of statin glucuronide+lactone, and C=substrate concentration. Incubations were performed in triplicate for human liver microsomes (pooled from n=10) or UGTs at 250-μM substrate concentration. Values are mean±SD (n=3 to 5).

[25] = as above; assay type: in vitro ADME; details: human, pH 7, read-out: intrinsic clearance of glucuronidation
Protocol: as §5

T1 sequence (P08684 whole entry): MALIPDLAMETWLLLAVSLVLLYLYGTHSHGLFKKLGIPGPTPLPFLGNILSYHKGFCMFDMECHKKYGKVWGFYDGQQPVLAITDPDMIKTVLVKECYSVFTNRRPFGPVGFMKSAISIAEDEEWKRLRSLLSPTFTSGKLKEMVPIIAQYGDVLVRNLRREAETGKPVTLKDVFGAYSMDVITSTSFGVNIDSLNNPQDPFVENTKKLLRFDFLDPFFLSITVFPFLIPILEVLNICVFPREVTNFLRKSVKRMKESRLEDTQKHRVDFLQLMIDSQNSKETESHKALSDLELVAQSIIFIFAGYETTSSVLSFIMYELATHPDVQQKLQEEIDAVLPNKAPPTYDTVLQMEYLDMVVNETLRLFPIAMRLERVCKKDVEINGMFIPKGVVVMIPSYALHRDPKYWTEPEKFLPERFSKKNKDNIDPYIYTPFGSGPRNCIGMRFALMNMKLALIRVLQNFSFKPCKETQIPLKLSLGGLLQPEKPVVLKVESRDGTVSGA

SMILES: CC[C@H](C)C(=O)O[C@H]1C[C@@H](C)C=C2C=C[C@H](C)[C@H](CC[C@@H](O)C[C@@H](O)CC(=O)O)[C@H]21 [lovastatin acid]
- increase of plasma AUC by gemfibrozil [6]: 280%

SMILES: COCc1c(C(C)C)nc(C(C)C)c(/C=C/[C@@H](O)C[C@@H](O)CC(=O)O)c1-c1ccc(F)cc1 [CVA, cerivastatin]
- microsomal CLint [23]: 10 µL/min/mg
- CLint, Glucuronidation (human liver microsomes [24]): 2.9 ul/min/mg protein
- Relative Contribution of glucuronidation to overall metabolism (human liver microsomes [24]): 22
- microsomal CLint [25]: 2.9 µL/min/mg

SMILES: CC[C@H](C)C(=O)O[C@H]1C[C@@H](C)C=C2C=C[C@H](C)[C@H](CC[C@@H]3C[C@@H](O)CC(=O)O3)[C@H]21 [lovastatin lactone, lovastatin]
- increase of plasma AUC by gemfibrozil [6]: no significant effect

SMILES: CC(C)OC(=O)C(C)(C)Oc1ccc(C(=O)c2ccc(Cl)cc2)cc1 [Fenofibrate, fenofibrate]
- UGT isozymes catalyzing glucuronidation of the substance [10]: UGT1A9 and isoforms of the UGT2B subfamily
- Cmax [6]: 15 to 55 µM

SMILES: CC(C)(Oc1ccc(C(=O)c2ccc(Cl)cc2)cc1)C(=O)O [Fenofibric acid, fenofibric acid]
- IC50 [11]: 283 µM
- Cmax ([13]; Cmax of fenofibric acid, fenofibrate treated): 77 ± 9.7 µM

Further lines, with some results ahead:

- inhibition at 1 µM [1]: > 85%
- inhibition at 1 µM [2]: > 90%
- inhibition at 1 µM [3]: ≤ 50%
- inhibition at 1 µM [4]: 68%
- inhibition at 1 µM [5]: ~50%
SMILES: CC(=O)N1CCN(c2ccc(OCC3COC(Cn4ccnc4)(c4ccc(Cl)cc4Cl)O3)cc2)CC1 (stereo not drawn) [Ketoconazole, ketoconazole]

- effect on ex vivo simvastatin hydrolysis [7]: Minimal effect
- effect on ex vivo simvastatin hydrolysis ([7]; listed as gemfibrozil): did not affect
- SVA/SV AUC ratio, Gem/vehicle [8]: 5.4 ± 2.1
- exposure in humans relative to fenofibrate/fenofibric acid [9]: > 2 fold
- UGT isozymes catalyzing glucuronidation of the substance [10]: UGT1A1 and 1A3
- IC50 [11]: 195 µM
- IC50 [12]: ~1000 µM
- AUC(0-t) ([13]; po, 75 mg/kg, AUC 12 hr of gemfibrozil, gemfibrozil 75 mg/kg bid for 5 days): 1440 ± 176 µM·h
- Cmax ([13]; po, 75 mg/kg, Cmax of gemfibrozil, gemfibrozil treated (75 mg/kg bid for 5 days)): 446 ± 66 µM
- IC50 [14]: 354 µM
- IC50 [15]: 314 µM
- IC50 (human liver microsomes [16]; read-out: IC50, AVA Glucuronidation, statin 10-20 μM, UDPGA): 316 µM
- IC50 [17]: ~400 µM
- IC50 [18]: 82 µM
- decrease in the biliary excretion of simvastatin-glucuronide [19]: ~2 fold
- IC50 [20]: > 800 µM
- IC50 [21]: 87 µM
- IC50 [2]: > 750 µM
- IC50 [22]: 220 µM
SMILES: Cc1ccc(C)c(OCCCC(C)(C)C(=O)O)c1 [Gemfibrozil, gemfibrozil]
- Cmax [6]: 100 to 300 µM
- mode of inhibition of simvastatin acid glucuronidation (human liver microsomes [16]): competitive inhibition
- effect on CYP3A4 mediated 1'-hydroxylation of midazolam (CYP3A4): no appreciable inhibitory effect

- UGT isozymes catalyzing glucuronidation of the substance ([10]; listed as SVA): UGT1A1 and 1A3; also recorded: UGT1A10
SMILES: CCC(C)(C)C(=O)O[C@H]1C[C@@H](C)C=C2C=C[C@H](C)[C@H](CC[C@@H](O)C[C@@H](O)CC(=O)O)[C@H]21 [Simvastatin acid, simvastatin acid]
- increase of plasma AUC by gemfibrozil [6]: 185%
